Tests used:
highly active NK cells = assay: Viability of freeze-thawed highly active NK cells (7-AAD staining, flow cytometry, FlowJo); conditions: collect. method 2
Method: The highly activated NK cells (1×10^5 cells/well) thawed under each condition were centrifuged on a 96-well plate (IWAKI, 4870-800SP), the supernatant was removed, and then a 7-amino-actinomycin D (7-AAD) solution diluted with PBS (Beckman Coulter, A 07704) was added to the cells to suspend them, and the suspension was incubated at room temperature (room temperature means 15 to 25° C., the same shall apply in the following experiments) for 20 minutes. The stained cells were measured by using a flow cytometer (BD LSR Fortessa, BD Biosciences).
The NK cells frozen for 48 hours or longer were thawed in a water bath at 37° C., and 1×10^5 cells were dispensed on a 96-well plate (IWAKI) immediately after the thawing. […] The cells dispensed immediately after thawing were centrifuged immediately after they were dispensed, and the cells of the other four groups were centrifuged after incubation of 3 hours, measurement was performed by the method for staining with 7-AAD described above, and the results were analyzed with the FlowJo software (FLOWJO, LLC) to calculate viable cell rates.
The NK cells frozen for 48 hours or longer were thawed at 37° C. in a water bath, and then 1×10^5 of the cells were dispensed on a 96-well plate immediately after the thawing. […] The cells dispensed immediately after thawing were centrifuged immediately after they were dispensed, and the cells of the other four groups were centrifuged after incubation of 3 hours, measurement was performed by the method for staining with 7-AAD described above, and the results were analyzed with the FlowJo software (FLOWJO, LLC) to calculate viable cell rates.
Then, measurement was performed by the method for staining with 7-AAD described above, and the results were analyzed with the FlowJo software. […] Then, measurement was performed by the method for staining with 7-AAD described above, and the results were analyzed with the FlowJo software. (8-3) The experiment was performed in the same manner as in (8-1), but (1) PBS, (2) Plasma-Lyte A, (3) Plasma-Lyte A containing 27.7 mEq/L of lactic acid (Nacalai Tesque, 20006-62), (4) Plasma-Lyte A containing 48.84 mg/L of MgSO4.7H2O (Nacalai Tesque, 21002-85), (5) Lactoringer, (6) Veen-F (Fuso Pharma), (7) Solita-T1 (AY Pharmaceuticals), (8) Solita-T3 (AY Pharmaceuticals), (9) 5% glucose injection solution (Terumo), and (10) RPMI medium were used as the solvents for dilution of thawed cells, and the cells were incubated at 37° C. for 3 hours. In the case of (3), lactic acid was added at the same concentration as the lactate concentration in Lactoringer, and neutrality of the solution was confirmed with litmus test paper. In the case of (4), MgSO4 was added at the same concentration as the MgSO4 concentration in HBSS. Measurement was then performed by the method for staining with 7-AAD described above, and the results were analyzed with the FlowJo software. (8-4) The experiment was performed in the same manner as in (8-2), but the cells were treated by using (1) PBS, (2) Plasma-Lyte A, (3) saline (OTSUKA NORMAL SALINE, Otsuka Pharmaceutical), (4) Bicanate (Otsuka Pharmaceutical), and (5) Solacet F (Terumo) as the solvents for dilution of thawed cells. Measurement was then performed by the method for staining with 7-AAD described above, and the results were analyzed with the FlowJo software. […] Immediately after completely thawed, the cells were diluted 10-fold in (1) Plasma-Lyte A, (2) saline, (3) RPMI 1640 medium, (4) Lactoringer, (5) 0.423 mM CaCl2 prepared in Plasma-Lyte A, and (6) 1.36 mM CaCl2, and left to stand at 37° C. for 3 hours. The CaCl2 concentration of (5) was the same as that in the RPMI 1640 medium, and the CaCl2 concentration of (6) was the same as that in Lactoringer. Measurement was then performed by the method for staining with 7-AAD described above, and the results were analyzed with the FlowJo software.

SKOV3 sphere = assay: Evaluation of thawed highly active NK cells in a solid tumor model (3D killing assay); type: cell-based, human; conditions: added before freezing at 800 μM (preferable between 2,400 μM and 267 μM)
Method: To one of SKOV3 sphere inoculated beforehand in each well of a […] plate, 50 μL of the prepared NK cells were added, and allowed to react for 4 days at 37° C. under 5% CO2. Then, the cells were detached with Accutase, collected, and cultured in the RPMI medium on a 24-well plate for expansion. After 17 days of the expansion culture at 37° C. under 5% CO2, the cells were fixed with 4% PFA, stained with DAPI, and observed under a fluorescence microscope (BZ-9000, KEYENCE), and BZ-II Analysis Application was used to quantify the area of SKOV3 that was not injured by the NK cells.
The SKOV3 cells (human ovarian cancer cell line) were prepared at a density of 3×10^4 cells/mL in 10% FBS/RPMI 1640, and inoculated onto a 96-well plate in an amount of 3×10^3 cells/100 μL per well. Spheres were prepared by incubating the cells at 37° C. for 3 days under 5% CO2.

C[C@H](CCC(=O)NCCS(=O)(=O)O)[C@H]1CC[C@H]2[C@@H]3[C@@H](O)C[C@@H]4C[C@H](O)CC[C@]4(C)[C@H]3CC[C@]12C [TUDCA, tauroursodeoxycholic acid dihydrate]
Viability (highly active NK cells; Exmp. 6, pretreatment KBM + 10 μM TUDCA 2 h, thawing PlasmaLyte R.T. 1 h, then KBM 2 h): A (“A” means 70% or higher)
Viability (highly active NK cells; Exmp. 6, pretreatment KBM + 10 μM TUDCA 2 h, thawing PlasmaLyte R.T. 3 h): A (“A” means 70% or higher)
Viability (highly active NK cells; Exmp. 6, pretreatment KBM + 30 μM TUDCA 2 h, thawing PlasmaLyte R.T. 1 h, then KBM 2 h): A (“A” means 70% or higher)
Viability (highly active NK cells; Exmp. 6, pretreatment KBM + 30 μM TUDCA 2 h, thawing PlasmaLyte R.T. 3 h): A (“A” means 70% or higher)
Viability (highly active NK cells; Exmp. 6, pretreatment KBM + 90 μM TUDCA 2 h, thawing PlasmaLyte R.T. 1 h, then KBM 2 h): A (“A” means 70% or higher)
Viability (highly active NK cells; Exmp. 6, pretreatment KBM + 90 μM TUDCA 2 h, thawing PlasmaLyte R.T. 3 h): A (“A” means 70% or higher)
Viability (highly active NK cells; Exmp. 6, pretreatment KBM + 270 μM TUDCA 2 h, thawing PlasmaLyte R.T. 1 h, then KBM 2 h): A (“A” means 70% or higher)
Viability (highly active NK cells; Exmp. 6, pretreatment KBM + 270 μM TUDCA 2 h, thawing PlasmaLyte R.T. 3 h): A (“A” means 70% or higher)
Viability (highly active NK cells; Exmp. 6, pretreatment KBM + 810 μM TUDCA 2 h, thawing PlasmaLyte R.T. 1 h, then KBM 2 h): A (“A” means 70% or higher)
Viability (highly active NK cells; Exmp. 6, pretreatment KBM + 810 μM TUDCA 2 h, thawing PlasmaLyte R.T. 3 h): A (“A” means 70% or higher)
Viability (highly active NK cells; Exmp. 7, pretreatment KBM + 266 μM TUDCA 2 h, thawing PlasmaLyte + IL-2, R.T. 1 h): A (“A” means 70% or higher)
Viability (highly active NK cells; Exmp. 7, pretreatment KBM + 266 μM TUDCA 2 h, thawing PlasmaLyte + IL-2, R.T. 1 h, then KBM 2 h): A (“A” means 70% or higher)
Viability (highly active NK cells; Exmp. 7, pretreatment KBM + 266 μM TUDCA 2 h, thawing PlasmaLyte + IL-2, R.T. 3 h): A (“A” means 70% or higher)
Viability (highly active NK cells; Exmp. 7, pretreatment KBM + 266 μM TUDCA 2 h, thawing PlasmaLyte R.T. 1 h): A (“A” means 70% or higher)
Viability (highly active NK cells; Exmp. 7, pretreatment KBM + 266 μM TUDCA 2 h, thawing PlasmaLyte R.T. 1 h, then KBM 2 h): A (“A” means 70% or higher)
Viability (highly active NK cells; Exmp. 7, pretreatment KBM + 266 μM TUDCA 2 h, thawing PlasmaLyte R.T. 3 h): A (“A” means 70% or higher)
Viability (highly active NK cells; Exmp. 7, pretreatment KBM + 800 μM TUDCA 2 h, thawing PlasmaLyte + IL-2, R.T. 1 h): A (“A” means 70% or higher)
Viability (highly active NK cells; Exmp. 7, pretreatment KBM + 800 μM TUDCA 2 h, thawing PlasmaLyte + IL-2, R.T. 1 h, then KBM 2 h): A (“A” means 70% or higher)
Viability (highly active NK cells; Exmp. 7, pretreatment KBM + 800 μM TUDCA 2 h, thawing PlasmaLyte + IL-2, R.T. 3 h): A (“A” means 70% or higher)
Viability (highly active NK cells; Exmp. 7, pretreatment KBM + 800 μM TUDCA 2 h, thawing PlasmaLyte R.T. 1 h): A (“A” means 70% or higher)
Viability (highly active NK cells; Exmp. 7, pretreatment KBM + 800 μM TUDCA 2 h, thawing PlasmaLyte R.T. 1 h, then KBM 2 h): A (“A” means 70% or higher)
Viability (highly active NK cells; Exmp. 7, pretreatment KBM + 800 μM TUDCA 2 h, thawing PlasmaLyte R.T. 3 h): A (“A” means 70% or higher)
Viability (highly active NK cells; Exmp. 7, pretreatment KBM + 2400 μM TUDCA 2 h, thawing PlasmaLyte + IL-2, R.T. 1 h): A (“A” means 70% or higher)
Viability (highly active NK cells; Exmp. 7, pretreatment KBM + 2400 μM TUDCA 2 h, thawing PlasmaLyte + IL-2, R.T. 1 h, then KBM 2 h): A (“A” means 70% or higher)
Viability (highly active NK cells; Exmp. 7, pretreatment KBM + 2400 μM TUDCA 2 h, thawing PlasmaLyte + IL-2, R.T. 3 h): A (“A” means 70% or higher)
Viability (highly active NK cells; Exmp. 7, pretreatment KBM + 2400 μM TUDCA 2 h, thawing PlasmaLyte R.T. 1 h): A (“A” means 70% or higher)
Viability (highly active NK cells; Exmp. 7, pretreatment KBM + 2400 μM TUDCA 2 h, thawing PlasmaLyte R.T. 1 h, then KBM 2 h): A (“A” means 70% or higher)
Viability (highly active NK cells; Exmp. 7, pretreatment KBM + 2400 μM TUDCA 2 h, thawing PlasmaLyte R.T. 3 h): A (“A” means 70% or higher)
Killing activity against the solid tumor model (SKOV3 sphere): higher killing activity
